The text below walks through data of article PMC7203344, “Sirtuin 1 Inhibiting Thiocyanates (S1th)—A New Class of Isotype Selective Inhibitors of NAD^+ Dependent Lysine Deacetylases” (Frontiers in Oncology, 2020).

Entries after “also recorded” stand apart in the source; their conditions may differ.

For one test, the target named is T1, Sirt1 (Homo sapiens, UniProt Q96EB6).
T1 construct: made in house; host or cells: E. coli BL21 Star (DE3)
T1 sequence (Q96EB6 134-747): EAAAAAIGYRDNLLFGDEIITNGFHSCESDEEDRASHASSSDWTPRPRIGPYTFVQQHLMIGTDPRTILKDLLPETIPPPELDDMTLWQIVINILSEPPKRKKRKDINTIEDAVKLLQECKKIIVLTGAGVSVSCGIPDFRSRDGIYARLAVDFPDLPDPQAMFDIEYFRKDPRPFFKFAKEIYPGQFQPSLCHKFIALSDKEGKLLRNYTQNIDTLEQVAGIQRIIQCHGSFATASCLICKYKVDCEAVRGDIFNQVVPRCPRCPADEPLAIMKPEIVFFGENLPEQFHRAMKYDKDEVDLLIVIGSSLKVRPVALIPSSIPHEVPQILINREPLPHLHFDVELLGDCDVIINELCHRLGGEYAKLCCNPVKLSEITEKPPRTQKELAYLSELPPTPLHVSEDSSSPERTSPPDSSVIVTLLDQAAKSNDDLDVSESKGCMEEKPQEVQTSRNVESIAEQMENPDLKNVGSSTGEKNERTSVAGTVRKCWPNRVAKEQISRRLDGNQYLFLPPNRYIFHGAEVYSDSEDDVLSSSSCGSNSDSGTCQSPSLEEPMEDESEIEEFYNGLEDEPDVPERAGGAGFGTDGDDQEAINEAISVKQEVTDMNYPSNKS
Put plainly: Fluorescent thermal shift assay (FTSA), Sirt1. It is filed as binding. The protocol:
In a 96-well plate (Hard-Shell® PCR-plates, 96-well, thin-wall, BioRAD, USA) 14 μL Sirt1_134−747 in assay buffer (0.3 mg/mL final assay concentration, 50 mM Tris/HCl, 137 mM NaCl, 2.7 mM KCl, 1 mM MgCL2, pH 8.0) were mixed with 1 μL inhibitor in DMSO (100 μM) or DMSO [final assay concentration 5% (v/v)] as a control and 5 μL SyproOrange (1:100 in assay buffer). The fluorescence intensity was monitored during a constant increase of temperature from 20 to 95°C, 1 K per 20 s, using a real-time-PCR-machine (C1000 TouchTM Thermal Cycler, CFX96TM Real-Time System, BioRAD, USA). Melting temperatures were calculated via GraphPad Prism according to a published procedure ([60]).

In test [1] the test system is MCF7 cells. Put plainly: Cell proliferation assay with MCF7 cells. Particulars: concentrations as for HeLa. It is filed as cell-based, human. The protocol: (§1) 1.5 × 10^4 cells/well were seeded in 24-well plates and grown in DMEM 10% in presence of DMSO, 20 μM EX-527, 12 μM S1th 13, 20 μM S1th 12, or 30 μM S1th 10. The growth media containing the drugs was replaced every 48 h. Cells were collected and counted at the indicated times starting 24 h after seeding (0, 24, 48, 72, 96, and 120 h). The experiment was performed twice in duplicates.

The test system of test [2] is HeLa cells. The test is described as follows: Colony forming assay with HeLa cells. Particulars: 7–10 days; concentrations as in proliferation assay. It is filed as cell-based, human. The protocol: (§2) For colony assays, 50 cells per well were seeded in 6-well plates and grown in the same conditions with the same drug concentrations as for the proliferation assays. In this case, the growth media containing the drugs was replaced every 48 h. After 7–10 days, when isolated colonies were formed, wells were washed with PBS, and cells were fixed with cold methanol for 5 min at RT. Cells were stained with crystal violet for 10 min at RT and washed with H2O. Images were acquired using iBright (Thermo Fisher Scientific, MA, USA). For quantification, cells of each well were resuspended in 10% glacial acetic acid to dissolve crystal violet whose levels were monitored by measuring absorbance at 590 nm. The experiment was performed in duplicates.

Test [3] concerns H3K9ac and p53K382ac in HeLa cells. The test is described as follows: Analysis of acetylation status in HeLa cells by western blotting. It counts as cell-based, human. Conditions: 48 h, concentrations as in proliferation assay. The protocol: 5 × 10^4 cells were plated in 6-well plates and grown with the conditions and drug concentrations as described for the proliferation assay. Cells were harvested at 48 h and resuspendend in protein loading buffer. After sonication the samples were centrifuged at 14,000 rpm in an Eppendorf microcentrifuge (Eppendorf, DE) and the supernatants were analyzed by western-blot. The following antibodies were used: histone H3 (Cell Signaling #9715), histone H3K9ac (Cell Signaling # C5B11), GAPDH (Cell Signaling #D16H11), p53 (ThermoFisher #PA527822), and p53K382ac (Abcam 75754). Quantification was carried out using imageJ.
On the technique in general: Immunoblotting shows a protein as a band on a membrane.

The test system of test [4] is HeLa cells. The test is described as follows: Cell proliferation assay with HeLa cells. It counts as cell-based, human. Conditions: EX-527 20 μM, S1th 13 12 μM, S1th 12 20 μM, S1th 10 30 μM; up to 120 h. The procedure:
as §1

Test [5] concerns γH2AX/H2AX levels in MEF cells. The test is described as follows: γH2AX level determination by western blot. It is filed as cell-based, mouse. The procedure:
Sirt1 WT and KO MEFS cells were treated with 10 μM EX-527, 12 μM S1th 13 (6), 20 μM S1th 12 (5), 30 μM S1th 10 (7) and 30 μM SirReal2 [Sirt2 inhibitor, synthesized according to ([62])] for 48 h. Oxidative stress was induced using 10 μM Camptothecin 2 h. Whole-cell extracts were performed according to the Dignam protocol ([63]). Primary antibodies used for the western blot were anti-H2AX and anti-γH2AX (ab11175 and ab2893 resp., Abcam, UK). Densiometric analysis of the western blots was performed with Quantity One software (Bio-Rad Laboratories, Inc., USA).

In test [6] the test system is HeLa cells. Put plainly: Wound healing assay with HeLa cells. It counts as cell-based, human. The protocol: For wound healing assay 6 × 10^5 cells per well were seeded in 6-well plates and grown for 24 h in DMEM containing 10% FBS. After 24 h, a lineal gap between cells was created in the middle of the plate by scratching the cell monolayer with a 1 mL pipette tip in the same position in each well. Once the scratching is done, plates were washed twice with PBS and then grown in DMEM containing 1% FBS and the drugs in the same concentrations as for the proliferation assay. As described previously, the growth media 1% FBS containing the drugs was replaced every 48 h. Images were acquired in an Optimal microscope (Leica microscopes, DE) using Leica Application Suite X (LAS X) every 24 h (0, 24, 48, and 72 h) until the gap closed. The quantification of the area of the gap at the indicated times was performed with Image J-MRI Wound Healing Tool. The experiment was performed only once.

Test [7] relates to MCF7 cells. Put plainly: Colony forming assay with MCF7 cells. Conditions: concentrations as for HeLa. It is filed as cell-based, human. The protocol: as §2

As for `NC(=O)C1CCCc2c1[nH]c1ccc(Cl)cc21` (stereo not drawn) [EX-527, reference compound], the “effect on Tm of Sirt1 (in words)” value at Sirt1 is listed as “barely effected; also recorded: very small shift or no shift at all”. For the same compound, the “cell proliferation of MCF7 cells” value with MCF7 cells [1] is reported as “only have a mild effect”. Moreover, the “colony forming of HeLa cells” value with HeLa cells [2] is recorded as “completely suppressed colony forming”. In test [3], the “H3K9 acetylation in HeLa cells” value is recorded as “no hyperacetylation” and the “p53K382 acetylation in HeLa cells” value is recorded as “increased acetylation levels”. For the same compound, the “H3K9 acetylation in HeLa cells” value in test [3] (listed as 1) is “did not show clear hyperacetylation”. In addition, the “cell proliferation of HeLa cells” value in the test with HeLa cells [4] is reported as “significantly decreased cell proliferation”. Further, the “γH2AX/H2AX levels without Camptothecin” value in test [5] (48 h, EX-527 10 μM, S1th 10 30 μM, S1th 12 20 μM, S1th 13 12 μM, SirReal2 30 μM) is “decreased”. In addition, the “γH2AX/H2AX levels after addition of Camptothecin” value in test [5] (Camptothecin 10 μM 2 h, same inhibitor concentrations) is “strong decrease”. Also, the “migration of HeLa cells (wound healing), 24 h” value in the test on HeLa cells [6] (24 h, concentrations as in proliferation assay, performed once) is “failed to impair migration”. The “wound healing of HeLa cells, 72 h” value with HeLa cells [6] (72 h) is “mild effect on wound healing”. The “colony forming capabilities of MCF7 cells” value in the test with MCF7 cells [7] is “significantly decreased”.
